Data: US9828350B2, “5,6-dihydro-2H-[1,4]oxazin-3-yl-amine derivatives useful as inhibitors of beta-secretase (BACE)” (Janssen Pharmaceutica NV, priority 2010, dated 2017)

Assays:
Abeta 1-40 = conditions: 20 mg/kg, 24 h
Protocol: (§1) Single Dose Pharmacology in the Beagle Dog
(§2) Compound 86 was tested to evaluate the effect on the beta-amyloid profile in cerebrospinal fluid (CSF) of dogs after a single dose, in combination with pharmacokinetic (PK) follow up and limited safety evaluation. 6 Beagle dogs (3 male, 3 female) were dosed with vehicle (4 ml/kg of an aqueous suspension of 20% cyclodextrin and Tween) and 6 Beagle dogs (3 male, 3 female) were dosed with compound 86 (20 mg/kg in 2 ml/kg of an aqueous 20% cyclodextrin solution) on an empty stomach. CSF was taken in conscious animals directly from the lateral ventricle via a cannula which was screwed in the skull and covered with subcutaneous tissue and skin, before and at 4, 8 and 24 hours after dosing. 8 Hours after dosing the animals got access to their regular meal for 30 minutes. Blood was taken for PK follow up (0.5, 1, 2, 4, 8 and 24 hours) and at the time of the CSF sampling, samples for serum analysis were taken. An additional sample for serum analysis was taken 10 days after dosing. The CSF samples were used for measurement of Abeta 1-37, Abeta 1-38, Abeta 1-40 and Abeta 1-42.

[1] = target: recombinant BACE1 protein (Homo sapiens, UniProt P56817); assay: Biochemical FRET based assay; conditions: recombinant BACE1 1 μg/ml, 120 minutes at room temperature, pH 5.0; read-out: Biochemical FRET based assay pIC50 (converted)
Outline: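 Recombinant BACE1 (1 μg/ml final) was incubated 120 minutes at room temperature with […] Mca/Dnp-labelled 13-mer APP Swedish-mutant peptide in 40 mM citrate pH 5.0, 0.04% PEG, 4% DMSO, with or without compound. Cleavage was measured as fluorescence (ex 320/em 405 nm), given as RFU difference between T120 and T0.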

Abeta 1-42 = conditions: 20 mg/kg, 24 h
Protocol: as §1, §2

Aβtotal = assay: Demonstration of in vivo efficacy, brain Aβtotal lowering (ELISA); conditions: mouse brain, 30 mpk, s.c., 4 h
From the text: To determine whether acute administration of an Aβ42 peptide lowering agent would reduce Aβ peptide levels in vivo, non-transgenic rodents, e.g. mice or rats were used. Animals treated with the Aβ peptide lowering agent were examined and compared to those untreated or treated with vehicle and brain levels of soluble Aβ42 and total Aβ were quantitated by standard techniques, for example, using ELISA.
A typical protocol for measuring Aβ42 lowering in vivo is shown but it is only one of many variations that could be used to optimize the levels of detectable Aβ. For example, Aβ peptide lowering compounds were formulated in 20% hydroxypropyl 3 cyclodextrin. The Aβ peptide lowering agents were administered as a single oral dose (p.o.) or a single subcutaneous dose (s.c.) to overnight fasted animals. After a certain time, usually 2 or 4 h (as indicated in Table 19), the animals were sacrificed and Aβ42 levels were analysed.
Blood was collected by decapitation and exsanguinations in EDTA-treated collection tubes. Blood was centrifuged at 1900 g for 10 minutes (min) at 4° C. and the plasma recovered and flash frozen for later analysis. The brain was removed from the cranium and hindbrain. The cerebellum was removed and the left and right hemisphere were separated. The left hemisphere was stored at −18° C. for quantitative analysis of test compound levels. The right hemisphere was rinsed with phosphate-buffered saline (PBS) buffer and immediately frozen on dry ice and stored at −80° C. until homogenization for biochemical assays.
Mouse brains from non-transgenic animals were resuspended in 8 volumes of 0.4% DEA (diethylamine)/50 mM NaCl containing protease inhibitors (Roche-11873580001 or 04693159001) per gram of tissue, e.g. for 0.158 g brain, add 1.264 ml of 0.4% DEA. All samples were homogenized in the FastPrep-24 system (MP Biomedicals) using lysing matrix D (MPBio #6913-100) at 6 m/s for 20 seconds. Homogenates were centrifuged at 221.300×g for 50 min. The resulting high speed supernatants were then transferred to fresh eppendorf tubes. Nine parts of supernatant were neutralized with 1 part 0.5 M Tris-HCl pH 6.8 and used to quantify Aβtotal and Aβ42.
To quantify the amount of Aβtotal and Aβ42 in the soluble fraction of the brain homogenates, Enzyme-Linked-Immunosorbent-Assays were used. Briefly, the standards (a dilution of synthetic Aβ1-40 and Aβ1-42, Bachem) were prepared in 1.5 ml Eppendorf tube in Ultraculture, with final concentrations ranging from 10000 to 0.3 pg/ml. The samples and standards were co-incubated with HRPO-labelled N-terminal antibody for Aβ42 detection and with the biotinylated mid-domain antibody 4G8 for Aβtotal detection. […] The plate was allowed to incubate overnight at 4° C. in order to allow formation of the antibody-amyloid complex. Following this incubation and subsequent wash steps the ELISA for Aβ42 quantification was finished by addition of Quanta Blu fluorogenic peroxidase substrate according to the manufacturer's instructions (Pierce Corp., Rockford, Ill.). A reading was performed after 10 to 15 min (excitation 320 nm/emission 420 nm).
For Aβtotal detection, a Streptavidine-Peroxidase-Conjugate was added, followed 60 min later by an additional wash step and addition of Quanta Blu fluorogenic peroxidase substrate according to the manufacturer's instructions (Pierce Corp., Rockford, Ill.). A reading was performed after 10 to 15 min (excitation 320 nm/emission 420 nm).

Abeta 1-38 = conditions: 20 mg/kg, 24 h
Protocol: as §1, §2

Abeta total = assay: Cellular αLisa assay in SKNBE2 cells, Abeta total; assay type: cell-based, human; conditions: Homo sapiens, SKNBE2, 18 h, incubated for 18 hours, read-out: Cellular αLisa assay in SKNBE2 cells Abetatotal pIC50 (converted)
Outline: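 Human neuroblastoma SKNBE2 cells expressing wild-type hAPP695 were incubated with compound for 18 hours. Secreted Abeta total and Abeta 1-42 in medium were quantified by sandwich αLisa: biotinylated AbN/25 on streptavidin donor beads with Ab4G8 (total) or cAb42/26 (1-42) acceptor beads. Light emission read after 1 hour (ex 650 nm, em 615 nm).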

Chain of recombinant BACE1 protein (P56817 46-501): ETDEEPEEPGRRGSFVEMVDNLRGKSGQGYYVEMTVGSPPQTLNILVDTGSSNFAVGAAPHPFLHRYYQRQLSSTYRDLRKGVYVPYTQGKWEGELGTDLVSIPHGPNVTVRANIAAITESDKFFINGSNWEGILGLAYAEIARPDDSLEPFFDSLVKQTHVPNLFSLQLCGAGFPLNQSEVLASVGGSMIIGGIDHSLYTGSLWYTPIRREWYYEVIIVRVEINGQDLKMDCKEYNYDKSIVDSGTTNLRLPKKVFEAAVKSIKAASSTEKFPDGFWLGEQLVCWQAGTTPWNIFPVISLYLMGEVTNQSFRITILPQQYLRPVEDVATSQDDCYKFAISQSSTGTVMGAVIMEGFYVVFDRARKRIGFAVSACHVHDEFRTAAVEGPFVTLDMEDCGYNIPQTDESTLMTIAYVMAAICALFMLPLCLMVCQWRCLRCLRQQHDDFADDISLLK

C[C@]1(c2cccc(NC(=O)c3ccc(Cl)cn3)c2)N=C(N)CO[C@@H]1F (single isomer, unassigned) [Compound 86, (R*,R*)—N-[3-(5-amino-2-fluoro-3-methyl-3,6-dihydro-2H-1,4-oxazin-3-yl)phenyl]-5-chloropyridine-2-carboxamide]
decrease in Abeta 1-40 in CSF compared to own baseline (Abeta 1-40): > 90% | IC50 [1]: 38.9 nM | decrease in Abeta 1-42 in CSF compared to own baseline (Abeta 1-42): > 90% | Aβtotal (% Ctrl)_Mean (Aβtotal): 55 % Ctrl | decrease in Abeta 1-38 in CSF compared to own baseline (Abeta 1-38): > 90% | IC50 (Abeta total): 6.17 nM
